Assay [1] concerns PD-L1. The assay can be described thus: PD-L1 immunofluorescence after MeTC7 treatment, human ovarian carcinoma cells (SKOV-3, OVCAR-8, IGROV-1). Type of assay: cell-based. The conditions noted are these: MeTC7 125 nM, 4-6 hours. The procedure:
(§1) Co-localization of VDR and PD-L1 was performed following the method in the Examples above. To determine the expression level of PD-L1 after MeTC7 treatment (125 nM), 10000 cells/well of SKOV-3, OVCAR-8 human ovarian carcinoma cells, IGROV-1 human ovarian carcinoma cells, and ID-8 murine ovarian cancer cells were seeded in an 8 well slide chamber (Nunc) and allowed to adhere overnight in FBS supplemented DMEM media. After 18 hours, the media was removed and the cells were treated with vehicle or MeTC7 supplemented DMEM serum free media for 4-6 hours. Cells maintained in DMEM medium were fixed with formalin solution for 15 mins, washed with PBST solution and blocked with Donkey serum 5% in PBST for 30 minutes. Cells were carefully washed and stained with PD-L1 primary antibody overnight in PBST. The cells were washed and stained with corresponding fluorescence linked secondary antibody for 1 hour. Cells were washed repeatedly with PBST (200 μL) five times. Casing on the chambers were removed and DAPI was applied in a mounting medium and images were recorded using an epi or confocal microscopy.

Assay [2] relates to PD-L1. Put plainly: PD-L1 immunofluorescence after MeTC7 treatment, ID-8 murine ovarian cancer cells. In kind it is cell-based. The conditions noted are these: MeTC7 125 nM, 4-6 hours. The procedure: as §1
Assay [3] deals with PD-L1. The assay can be described thus: PD-L1 immunofluorescence after MeTC7 treatment, DAOY medulloblastoma cells. In kind it is cell-based, human. To be noted: MeTC7 125 nM, confocal microscopy. As to the method: FIG. 12 is a fluorescent micrograph depicting the effects of MeTC7 (125 nM) treatment on immune checkpoint PD-L1 expression in DAOY (human) medulloblastoma cells. Treated/naïve DAOY cells were analyzed by spinning disk confocal microscopy after staining with PD-L1 primary and suitable secondary antibodies.
as §1, with “Cells were washed repeatedly with PBST (200 μL) five times.” left out

In assay [4] the test system is PD-L1. The assay can be described thus: PD-L1 expression after MeTC7 treatment, melanoma cells. In kind it is cell-based.
The next assay relates to SKOV-3 cells. Put plainly: Tumor size in SKOV-3 xenograft, cisplatin-resistant murine model of ovarian cancer. In kind it is in vivo. To be noted: SKOV-3 xenograft nude mice; IP; oligos 7 mg/kg, cisplatin 10 mg/kg once a week; measured every 3 days. The procedure: Four to six week-old immunodeficient nude mice were maintained at a temperature of ˜22° C. and a relative humidity of ˜55%, with a 12 hour light/dark cycle. The mice used were NU/NU; strain code 088/homozygous, obtained from Charles River Laboratories, Wilmington, Mass. The inoculation of the mice began with culturing SKOV-3 cells to 80% confluence, washing the SKOV-3 cells in PBS twice, and harvesting the cells by trypsination. The harvested cells were then pooled in complete medium, washed in PBS twice, and 2×10^6 cells/inoculate were suspended in 0.1 ml of matrigel. This cell suspension was used to inoculate the mice subcutaneously in the flank of each mouse. Mice with developing tumors after two weeks were randomly assigned to experimental groups. Mice were treated intraperitoneally with either vehicle control (control group; 7 animals) or Antisense-1 (7 mg/kg bwt) or scrambled PTO (7 mg/kg bwt) for 7 days. In another arm mice were treated with cisplatin (10 mg/kg, once a week), or scrambled PTO (7 mg/kg, 5 times/week)+ cisplatin (10 mg/kg, IP, once a week) or Antisense-1 (7 mg/kg, IP, once a week)+ Cisplatin (10 mg/kg, IP, once a week). Mice were weighed and tumor size was measured using a digital caliper every 3 days.

The test system of another assay is PD-1. Put plainly: RT-PCR of PD-1 in donor PBMCs incubated with recombinant HE4. In kind it is cell-based, human. The conditions noted are these: HE4 5.4 nM, donor PMBCs, within 6 hours. The procedure:
Ficoll-Paque density gradient centrifugation was used to isolate PBMC from heparinized venous blood. Unfractionated PBMC were suspended in serum free RPMI1640 medium. Then the cells were incubated with recombinant HE4 (5.4 nM) or vehicle for 6 hours. TRIzol reagent was used to isolate the total RNA, and the first strand cDNA was made by SuperScript III reverse transcriptase. RT-PCR for the cDNA was done with PD-1 or GAPDH (internal control) gene specific primers. The primer sequences used for PD-1 are F-[…] (SEQ ID NO:4); R-[…] SEQ ID NO:5). The primer sequences used for internal control (GAPDH) are F-AATCCCATCACCATCTTCC SEQ ID NO:6); R-gTCCTTCCACgATACCAAAg SEQ ID NO:7).

Consider `CC(C)CCC[C@@H](C)C1CC[C@H]2C34C=CC5(C[C@@H](OC(=O)CBr)CC[C@]5(C)[C@H]3CC[C@]12C)n1c(=O)n(C)c(=O)n14` (stereo partly drawn) [MeTC7], for which the PD-L1 expression entry with PD-L1 [1] is recorded as “down regulate”; in the assay with PD-L1 [2], “down regulate”; with PD-L1 [3], “reduced PD-L1 expression”; in the assay on PD-L1 [4] it was “a similar effect was not found”.
On to `N.N.[Cl][Pt][Cl]` [cisplatin], for which the “percent change in tumor size” value with SKOV-3 cells is listed as “an increase in tumor size at least initially”.

B1: recombinant HE4: exogenous recombinant human epididymis protein 4 added to PBMCs (protein, UniProt Q14508 31-124, looked up)
WAP four-disulfide core …: EKTGVCPELQADQNCTQECVSDSECADNLKCCSAGCATFCSLPNDKEGSCPQVNINFPQLGLCRDQCQVDSQCPGQMKCCRNGCGKVSCVTPNF
Turning to B1, in the assay with PD-1, the “increase in PD-1 expression (PD-1/GAPDH ratio)” value is recorded as 77.7%.

The values above are taken from patent publication US10376535B2, “Therapy for malignant disease” (UNIVERSITY OF ROCHESTER, priority 2015, dated 2019).
